Assay results: ChEMBL document CHEMBL3430912, “GSK Tres Cantos Anti-Kinetoplastid Screening (TCAKS) Data”

Legend:
[1] = system: Trypanosoma brucei brucei; experiment: GSK_TCAKS: pIC50 Trypanosoma brucei viability assay using luminiscence. Assay plates (1536-well) were prepared. T. brucei cultures were harvested and counted in a CASY cell counter. A parasite suspension was prepared at a final concentration of 5 * 10^4 cells/mL in complete HMI9 medium and 6uL was dispensed to all wells containing compounds using a Multidrop Combi dispenser. 6uL of HMI9 media with 0.4% DMSO were dispensed to control columns. Plates were incubated for 24 h at 37C, 5% CO2 then tempered for 10 min at room temperature. ATP content was quantified by adding 4 uL of CellTiter-Glo Reagent (Promega) according to the manufacturer's instructions. Luminescence was measured using a ViewLux.; assay type: functional, organism-based; details: Lister 427, CASY
Leishmania donovani [2] = experiment: GSK_TCAKS: pIC50 Leishmania donovani viability assay using fluorescence intensity. Assay plates (1536-well) were prepared by adding 30nL per well of compound. For single shot assay, the final compound concentration was 5uM. […] Briefly, eGFP LdBOB axenic amastigotes were harvested, fixed and counted in a CASY cell counter (Roche-Applied Science). A final concentration of 1.5 * 10^5 cells per well were prepared in amastigote media containing 500 U/mL penicillin/streptomycin (Invitrogen) and 6uL was dispensed to each experimental well using a Multidrop Combi dispenser (Thermo Scientific). 6uL of assay media was dispensed to control columns used as reference for 100% compound response. Following incubation for 72 h at 37C, 5% CO2, 2 uL of resazurin was added to each well at a final concentration of 0.5 mM in phosphate buffered saline (PBS) with IGEPAL (Sigma-Aldrich), 0.05% (v/v).; assay type: functional, organism-based
Leishmania donovani [3] = experiment: (§1) GSK_TCAKS: pIC50 Leishmania donovani Imaging: Infected Macrophages. Assay plates (384-well) were prepared by adding 250nL of compound to each well. For single shot assay, the final compound concentration was 5 uM. […] Automated image analysis was performed with a script developed on Acapella High Content Imaging and Analysis Software (PerkinElmer). Output: Percent of infected macrophage cells were reported for each well.; assay type: functional, organism-based, Homo sapiens; details: THP-1
[4] = system: Trypanosoma brucei brucei; experiment: GSK_TCAKS: pIC50 Trypanosoma brucei viability assay using fluorescence intensity. Assay plates (1536-well) were prepared by dispensing 25nL of compound solution per well using an Echo acoustic dispenser (Labcyte).; assay type: functional, organism-based; details: Lister 427, 2 h
Leishmania donovani [5] = experiment: as §1, with “Amastigotes/Macrophages.” for “Infected Macrophages.”, “Average number” for “Percent”, “amastigotes per” for “infected”, “cell” for “cells”; assay type: functional, organism-based, Homo sapiens; details: THP-1
Trypanosoma cruzi [6] = experiment: GSK_TCAKS: pIC50 Trypanosoma cruzi Imaging: Amastigotes/Cell. […] Cells were then washed once with PBS before infection. T. cruzi trypomastigotes, collected at days 5 to 8 after infection from LLC-MK2 parasite infected cultures, were allowed to swim out for 4h at 37C from a centrifuged pellet (2,500 rpm/10 min/room temperature). Trypomastigotes were then collected and counted in a CASY Cell Counter. Trypomastigotes, in supplemented DMEM, were added to H9c2 cultures in a multiplicity of infection of 1 and incubated for 18 h. Cells were washed once with PBS before incubation of the infected H9c2 monolayer with trypsin (Life-Technologies) to detach cells from the flask. Cells were counted in a CASY Cell Counter using a 150 um capillary and their density set at 5 * 10^4 cells per mL in supplemented assay DMEM. Infected H9c2 were dispensed into 384-well poly-lysine coated assay plates at 50uL per well using a Multidrop Combi dispenser. After seeding them, the plates were incubated at 37C, 5% CO2 for 72h. Cultures were then fixed and stained by addition of 50 uL of a solution containing 8% formaldehyde and 4 uM DRAQ5 DNA dye (BioStatus, UK) per well. […] Five images were collected per well for reliable statistical analysis. Automated image analysis was performed with a script developed on Acapella High Content Imaging and Analysis Software (PerkinElmer). Output: number of amastigotes per cell as infection level measurement.; assay type: functional, organism-based, Rattus norvegicus; details: H9c2, 4 h
NIH3T3 = experiment: GSK_TCAKS: pIC50 NIH 3T3 cell line viability assay using luminiscence. Tissue culture surface treated assay plates (1536-well) were used. […] The 100% cells survival control was determined exposing the host-cells to a 0.5% DMSO concentration, whereas the 100% toxicity control was achieved by seeding the cells in presence of Amphotericin B at 50uM. Plates were incubated for four days at 37C, 5% CO2. The assay readout was developed by addition of 5uL of CellTiter-Glo Reagent following the manufacturer's instructions. Luminiscence was measured using a ViewLux.; assay type: functional, cell-based; details: Mus musculus, NIH3T3, 96 h
Trypanosoma cruzi [7] = experiment: (§2) GSK_TCAKS: pIC50 Trypanosoma cruzi Imaging: Infected Cells. […] Cells were then washed once with PBS before infection. T. cruzi trypomastigotes, collected at days 5 to 8 after infection from LLC-MK2 parasite infected cultures, were allowed to swim out for 4h at 37C from a centrifuged pellet (2,500 rpm/10 min/room temperature). Trypomastigotes were then collected and counted in a CASY Cell Counter. Trypomastigotes, in supplemented DMEM, were added to H9c2 cultures in a multiplicity of infection of 1 and incubated for 18 h. Cells were washed once with PBS before incubation of the infected H9c2 monolayer with trypsin (Life-Technologies) to detach cells from the flask. Cells were counted in a CASY Cell Counter using a 150 um capillary and their density set at 5 * 10^4 cells per mL in supplemented assay DMEM. Infected H9c2 were dispensed into 384-well poly-lysine coated assay plates at 50uL per well using a Multidrop Combi dispenser. After seeding them, the plates were incubated at 37C, 5% CO2 for 72h. Cultures were then fixed and stained by addition of 50 uL of a solution containing 8% formaldehyde and 4 uM DRAQ5 DNA dye (BioStatus, UK) per well. […] Five images were collected per well for reliable statistical analysis. Automated image analysis was performed with a script developed on Acapella High Content Imaging and Analysis Software (PerkinElmer). Output: percentage of infected cells per well as a second infection marker.; assay type: functional, organism-based, Rattus norvegicus; details: H9c2, 4 h
[8] = target: Sterol 14-alpha demethylase (Trypanosoma cruzi (strain CL Brener), UniProt Q7Z1V1); experiment: GSK_TCAKS: pIC50 CYP51 from Trypanosoma cruzi.; assay type: functional
Sterol 14-alpha demethylase, sequence (Q7Z1V1 whole entry): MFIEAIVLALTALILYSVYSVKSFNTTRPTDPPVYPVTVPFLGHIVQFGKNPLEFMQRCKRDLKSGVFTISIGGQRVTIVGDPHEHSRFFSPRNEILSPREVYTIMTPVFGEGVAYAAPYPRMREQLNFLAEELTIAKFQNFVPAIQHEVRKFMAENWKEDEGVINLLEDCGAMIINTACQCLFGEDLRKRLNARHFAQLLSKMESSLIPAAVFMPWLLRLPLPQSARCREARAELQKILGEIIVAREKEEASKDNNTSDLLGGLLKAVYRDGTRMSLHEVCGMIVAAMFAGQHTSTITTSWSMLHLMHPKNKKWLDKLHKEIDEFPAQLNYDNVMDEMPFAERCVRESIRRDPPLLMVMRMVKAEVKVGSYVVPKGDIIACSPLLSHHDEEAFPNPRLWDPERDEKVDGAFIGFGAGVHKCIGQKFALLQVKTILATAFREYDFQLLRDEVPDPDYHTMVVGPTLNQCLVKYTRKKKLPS

Trypanosoma cruzi [9] = experiment: GSK_TCAKS: pIC50 Trypanosoma cruzi viability assay using beta-GAL activity. This assay was run at single shot at 5uM compound concentration per well. The biological reagents consisted of NIH-3T3 host cells and trypomastigotes parasitic cells; both cell types were set to a 3.3 * 10^5 cells/mL dilution in assay DMEM by means of a CASY cell counter device using a 60um capillary. 6 uL of the mixture were dispensed per well (about 1 * 10^3 host-cells and 1 * 10^3 parasites) with a Multidrop Combi dispenser. […] In all wells, the percentage of DMSO never exceeded 0.5%. Plates incubated for four days at 37C, 5% CO2. The substrate used for the assay fluorescence intensity (FLINT) readout was resorufin-beta-D-galactopiranoside (Sigma-Aldrich) at 5uM per well. It was diluted in PBS supplemented with the soft detergent Igepal (Fluka).; assay type: functional, organism-based, Mus musculus; details: Tulahuen, NIH3T3
Leishmania donovani [10] = experiment: as §1, with “THP-1 Host” for “Infected”, “THP-1 cell count” for “Percent of infected macrophage cells”; assay type: functional, organism-based, Homo sapiens
[11] = GSK_TCAKS: pIC50 HepG2 human cell line viability assay using luminiscence. […] Seeding density was checked to ensure that new mono-layers were not more than 50% confluent at the time of harvesting. Cell suspension was added to 500 mL of the same medium at a final density of 1.2 * 10^5 cells/mL. This cell suspension was dispensed (25 uL, 3000 cells per well) into 384-well clear-bottom plates using a Multidrop Combi dispenser. Prior to addition of the cell suspension, the screening compounds (250 nL) were pre-dispensed into the plates with an Echo liquid handler. Plates were incubated for 48 h at 37C, 5% CO2. After incubation, plates equilibrated at room temperature for 30 min before proceeding to develop the luminescent signal. The signal developer, CellTiter-Glo Reagent, was allowed to equilibrate at room temperature for 30 min and added to the plates (25uL per well) using a Multidrop Combi dispenser. Plates were left for 10 min at room temperature for stabilization and then read using a ViewLux.; assay type: toxicity, cell-based
Trypanosoma cruzi [12] = experiment: as §2, with “H2C9” for “Trypanosoma cruzi”, “H9c2 Host Cardiomyocytes.” for “Infected Cells.”, “Number” for “percentage”, “H9c2 Host Cardiomyocytes nuclei to determine drug-related cytotoxicity.” for “infected cells per well as a second infection marker.”; assay type: functional, organism-based, Rattus norvegicus; details: H9c2, 4 h

Row | Compound | IC50 [1] [µM] | IC50 (Leishmania donovani [2]) [µM] | IC50 (Leishmania donovani [3]) [µM] | IC50 [4] [µM] | IC50 (Leishmania donovani [5]) [µM] | IC50 (Trypanosoma cruzi [6]) [µM] | IC50 (NIH3T3) [µM] | IC50 (Trypanosoma cruzi [7]) [µM] | IC50 [8] [µM] | IC50 (Trypanosoma cruzi [9]) [µM] | IC50 (Leishmania donovani [10]) [µM] | IC50 at 48 h [11] [µM] | IC50 (Trypanosoma cruzi [12]) [µM]
1 | CC(CNS(=O)(=O)c1ccc(OC(F)F)cc1)c1ccc(NC(=O)c2ccncc2)cc1 (centres undefined) | 20 | > 50.1 | > 50.1 | 7.94 | 5.01 | 0.0794 | > 50.1 | 0.1 | 0.0501 | 0.2 | 15.8 | 100 | > 50.1
2 | Cn1cc(CN2CCN(c3ccc4c(c3)CCN(C(=O)[C@H]3C[C@@H]3c3ccccc3)CC4)CC2)cn1 | 39.8 | 0.631 | 31.6 | 25.1 | 1 | 0.794 | 20 | 3.16 | 15.8 | 1.58 | 6.31 | 50.1 | 31.6
3 | Cc1ccc(S(=O)(=O)Cn2nnnc2C(c2cccnc2)N2CCN(c3ccccc3)CC2)cc1 (centres undefined) | > 39.8 | 1 | > 50.1 | 31.6 | > 50.1 | 0.316 | 31.6 | 0.316 | 0.2 | 0.501 | > 50.1 | > 100 | > 50.1
4 | Cc1cc(C#N)c([N+](=O)[O-])cc1Br | 3.98 | 25.1 | 39.8 | 0.794 | 31.6 | 0.0501 | 20 | 0.316 | 7.94 | 0.2 | 25.1 | 31.6 | 50.1
5 | CC(C(=O)Nc1ccc(Br)cc1)N1CCN(c2ccc([N+](=O)[O-])cc2)CC1 (centres undefined) | > 39.8 | > 50.1 | > 50.1 | > 39.8 | > 50.1 | 3.16 | > 50.1 | 2.51 | 39.8 | 2.51 | > 50.1 | > 100 | > 50.1
6 | Cc1cc2ncn(-c3ccc([N+](=O)[O-])cc3C#N)c2cc1C | > 39.8 | > 50.1 | > 50.1 | 20 | > 50.1 | 0.794 | > 50.1 | 2 | > 100 | 1.26 | > 50.1 | > 100 | > 50.1
7 | O=C(CN(c1cccc(C(F)(F)F)c1)S(=O)(=O)c1ccc(Cl)cc1)NCc1ccc(F)c(F)c1 | 25.1 | > 50.1 | > 50.1 | 10 | > 50.1 | 0.501 | 31.6 | 0.794 | 0.158 | 0.794 | 20 | > 100 | > 50.1
8 | COc1ccc([N+](=O)[O-])cc1NC(=O)Nc1cccc(Cl)c1 | 20 | > 50.1 | > 50.1 | 6.31 | > 50.1 | 0.398 | > 50.1 | 10 | > 100 | 0.794 | 50.1 | > 100 | > 50.1
